Structures can show the parent of a compound that is named as a salt.
Key:
[1] = Hot-plate test (mouse); assay type: in vivo; details: po, 1 h, mice, p.o., 60 minutes after administration, plate 60°±0.5° C
Procedure: Eight mice (20-22 g) were used per dosage. Sixty minutes after oral administration of the test substance, the mice were placed on a heated metal plate of 60°±0.5° C. Untreated mice begin to lick their paws within a maximum of 10 seconds.

[2] = Writhing test (mouse); assay type: in vivo; details: po, 1 h, male mice, p.o., 60 minutes after administration
Procedure: Eight male mice (20-22 g.) per dosage, were used for this test. Sixty minutes after oral administration of the test substance, the mice were injected intraperitoneally with 10 ml/kg of the test solution. Following a latent period of 5 minutes, the number of animals in which no more than one characteristic writhing symptom (convulsive stretching movement of the body) occurred over five minutes was registered.

[3] = molecular target: T1, calf striatum (specific binding of [^3 H] spiroperidol on the receptor) (Bos taurus, UniProt P20288); assay: Spiroperidol-binding test (in vitro); details: 50% detachment of specific [^3 H] spiroperidol binding
T1 construct: calf striatum was used as the receptor; from tissue; host or cells: calf striatum
T1 sequence (P20288 whole entry): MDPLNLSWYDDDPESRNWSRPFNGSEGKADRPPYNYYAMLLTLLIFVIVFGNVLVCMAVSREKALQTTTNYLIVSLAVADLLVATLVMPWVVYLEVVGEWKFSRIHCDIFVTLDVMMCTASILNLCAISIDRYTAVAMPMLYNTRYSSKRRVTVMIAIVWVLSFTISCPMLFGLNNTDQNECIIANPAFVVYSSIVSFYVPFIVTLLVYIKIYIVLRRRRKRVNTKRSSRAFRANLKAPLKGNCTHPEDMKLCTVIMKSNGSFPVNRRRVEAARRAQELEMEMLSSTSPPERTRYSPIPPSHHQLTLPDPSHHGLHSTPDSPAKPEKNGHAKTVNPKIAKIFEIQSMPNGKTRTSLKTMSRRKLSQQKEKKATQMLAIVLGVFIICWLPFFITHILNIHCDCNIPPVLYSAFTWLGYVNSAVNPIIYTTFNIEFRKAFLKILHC
Procedure: Spiroperidol-binding test (in vitro)
In this in vitro test calf striatum was used as the receptor [Creese et al., Life Sci. 17, 993 (1975)] and incubated with [^3 H] spiroperidol in analogy to the method described by Fields et al., Brain Research 136, 578 (1977).

[4] = "Pole Climbing" test (rat); assay type: in vivo; details: ip, 6 h; for ED50: Rattus norvegicus, read-out: Pole-Climbing BCR (Block of Conditioned Reflex) ED50 i.p.; for ED10: rat, i.p., inhibition of the unconditioned reaction, ED 10, read-out: Pole-Climbing BUR (Block of Unconditioned Reflex) ED10 i.p.
Source text: "Pole Climbing" test (rat)
In this test, there was used, for each dosage, a group of 10 rats which had been trained to escape an electric shock, unconditioned stimulus, produced via the lattice floor immediately after an acoustic signal, conditioned stimulus, by jumping up a vertical isolated pole in the experimental cage.

Structure (SMILES)	ED50 [1]	ED50 [2]	IC50 [3]	ED50 [4]	ED10 [4]
CC(C)(C)[C@]1(OC(=O)C(F)(F)F)CCN2C[C@@H](c3ccccc3)CC[C@@H]2C1 (relative stereo) [rac-(9aβH)-2α-tert.Butyl-7β-phenyl-octahydro-2H-quinolizin-2-yl trifluoroacetate HCl]	86 mg/kg	8.7 mg/kg			
O=c1[nH]c2cc(C(F)(F)F)ccc2n1[C@@H]1CCN2C[C@@H](c3ccccc3Cl)CC[C@@H]2C1 (relative stereo) [rac-1-[(9aβH)-7β-(o-Chlorophenyl)octahydro-2H-quinolizin-2α-yl]-5-trifluoromethyl-2-benzimidazolinone HCl]			10 nM	0.21 mg/kg	0.41 mg/kg
CCCCC1(OC(C)=O)CCN2CC(c3ccccc3)CCC2C1.Cl (single isomer, unassigned; (+)) [(+)-2-Butyloctahydro-7-phenyl-2H-quinolizin-2-yl acetate HCl]	2.6 mg/kg	0.19 mg/kg			
CCC(=O)O[C@@]1(c2ccccc2)CCN2C[C@@H](c3cccc(OC)c3)CC[C@@H]2C1 (relative stereo) [rac-(9aβH)-2α-Phenyl-7β-(m-methoxyphenyl)-octahydro-2H-quinolizin-2-yl propionate HCl]	12 mg/kg	2.8 mg/kg			
CC(=O)O[C@]1(c2ccccc2)CCN2C[C@@H](c3ccccc3Cl)CC[C@@H]2C1 (relative stereo) [rac-(9aβH)-2β-Phenyl-7β-(o-chlorophenyl)-octahydro-2H-quinolizin-2-yl acetate HCl]	284 mg/kg	116 mg/kg			
CCCC[C@]1(OC(C)=O)CCN2C[C@@H](c3ccccc3)CC[C@@H]2C1 (relative stereo) [rac-(9aβH)-2α-n-Butyl-7β-phenyl-octahydro-2H-quinozilin-2-yl acetate HCl]	25 mg/kg	0.75 mg/kg			
Cc1cc2[nH]c(=O)n([C@@H]3CCN4C[C@@H](c5ccccc5Cl)CC[C@@H]4C3)c2cc1C (relative stereo) [rac-1-[(9aβH)-7β-(o-Chlorophenyl)octahydro-2H-quinolizin-2α-yl]-5,6-dimethyl-2-benzimidazolinone HCl]			5 nM	1.75 mg/kg	4.55 mg/kg
CC(C)(C)[C@]1(O)CCN2C[C@@H](c3ccc(Cl)cc3Cl)CC[C@@H]2C1 [(-)-(2S,7R,9aR)-2-tert.-Butyl-7-(2,4-dichlorophenyl) octahydro-2H-quinolizin-2-ol HCl]			41 nM	4.7 mg/kg	3.8 mg/kg
CC(C)(C)[C@]1(O)CCN2C[C@@H](c3ccc(Cl)cc3Cl)CC[C@@H]2C1 (relative stereo) [rac-(9aβ H)-2α-tert.-Butyl-7β-(2,4-dichlorophenyl) octahydro-2H-quinolizin-2-ol HCl]			79 nM	6.4 mg/kg	5.4 mg/kg
O=c1[nH]c2cc(Cl)ccc2n1[C@@H]1CCN2C[C@@H](c3ccccc3F)CC[C@@H]2C1 (relative stereo) [rac-1-[(9aβH)-7β-(o-Fluorophenyl)octahyro-2H-quinolizin-2α-yl]-5-chloro-2-benzimidazolinone HCl]				0.064 mg/kg	0.175 mg/kg

Source: patent US4236010A, “Phenyl-quinolizidines” (Hoffmann-La Roche Inc., priority 1978, dated 1980)
